From paper PMC3914206

Legend:
Assay type in all cases: binding
panel of 442 kinases [1] = molecular target: T1, panel of 442 kinases (Homo sapiens, UniProt Q13163); conditions: Compound Concentration 10 µM
T1 construct: purchased KINOMEscan
T1 sequence (Q13163 1-448): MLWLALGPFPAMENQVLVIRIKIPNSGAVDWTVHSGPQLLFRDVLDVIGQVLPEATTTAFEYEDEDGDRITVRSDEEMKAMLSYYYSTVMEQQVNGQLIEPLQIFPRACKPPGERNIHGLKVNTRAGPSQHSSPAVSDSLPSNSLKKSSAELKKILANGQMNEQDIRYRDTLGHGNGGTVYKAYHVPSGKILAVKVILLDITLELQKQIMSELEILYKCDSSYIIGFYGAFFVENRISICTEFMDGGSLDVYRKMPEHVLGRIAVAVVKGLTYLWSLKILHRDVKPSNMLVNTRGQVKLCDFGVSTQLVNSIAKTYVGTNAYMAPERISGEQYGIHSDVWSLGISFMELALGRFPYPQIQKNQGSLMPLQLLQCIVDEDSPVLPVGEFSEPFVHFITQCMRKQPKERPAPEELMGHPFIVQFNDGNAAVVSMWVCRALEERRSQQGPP
Source text: (§1) We assessed the selectivity of members of this scaffold using the KINOMEscan methodology across a near comprehensive panel of 442 kinases [[18,27]].

panel of 442 kinases [2] = molecular target: T2, panel of 442 kinases (Homo sapiens, UniProt Q9H3Y6); conditions: kinase SRMS; compound concentration 10 µM
T2 construct: purchased KINOMEscan
T2 sequence (Q9H3Y6 whole entry): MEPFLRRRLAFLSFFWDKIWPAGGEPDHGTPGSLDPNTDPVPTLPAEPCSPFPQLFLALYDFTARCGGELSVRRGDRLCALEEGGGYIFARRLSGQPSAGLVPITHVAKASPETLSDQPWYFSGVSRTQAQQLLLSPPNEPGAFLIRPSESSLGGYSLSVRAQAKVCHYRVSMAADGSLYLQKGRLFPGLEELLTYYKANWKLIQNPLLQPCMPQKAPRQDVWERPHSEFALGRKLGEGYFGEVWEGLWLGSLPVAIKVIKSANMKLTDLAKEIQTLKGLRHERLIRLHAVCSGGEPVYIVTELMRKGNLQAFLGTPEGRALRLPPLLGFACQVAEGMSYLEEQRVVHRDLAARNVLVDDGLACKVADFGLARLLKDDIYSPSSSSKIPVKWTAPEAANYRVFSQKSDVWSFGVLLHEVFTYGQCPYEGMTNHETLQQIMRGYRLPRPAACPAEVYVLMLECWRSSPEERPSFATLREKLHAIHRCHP
Source text: as §1

panel of 442 kinases [3] = molecular target: T3, panel of 442 kinases (Homo sapiens, UniProt Q9UIK4); conditions: Compound Concentration 10 µM
T3 construct: purchased KINOMEscan
T3 sequence (Q9UIK4 whole entry): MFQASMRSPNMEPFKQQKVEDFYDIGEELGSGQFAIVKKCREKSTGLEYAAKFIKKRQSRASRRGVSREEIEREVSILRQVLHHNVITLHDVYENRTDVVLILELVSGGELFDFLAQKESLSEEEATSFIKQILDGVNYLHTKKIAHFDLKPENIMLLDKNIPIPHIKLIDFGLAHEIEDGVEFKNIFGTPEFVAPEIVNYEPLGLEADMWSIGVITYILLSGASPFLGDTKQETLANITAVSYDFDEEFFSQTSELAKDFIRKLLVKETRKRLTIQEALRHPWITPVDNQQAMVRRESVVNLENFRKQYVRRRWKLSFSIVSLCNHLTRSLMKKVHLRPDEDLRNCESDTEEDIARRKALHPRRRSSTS
Source text: as §1

Row | SMILES | KINOMEscan: MEK5 (panel of 442 kinases [1]) | % Ctrl, SRMS (panel of 442 kinases [2]) [% Ctrl] | KINOMEscan: DAPK2 (panel of 442 kinases [3])
1 | COc1cc(C(=O)N2CCC(N3CCN(C)CC3)CC2)ccc1Nc1ncc2c(n1)N(C)c1ccccc1C(=O)N2C [15 (LRRK2-IN-1)] | 85 | 77 | 67
2 | COc1cc(C(=O)N2CCC(N3CCN(C)CC3)CC2)ccc1Nc1ncc2c(n1)N1CCc3cccc(c31)C(=O)N2C [Compound 24] | 28 | 100 | 22
3 | COc1cc(C(=O)N2CCC(N3CCN(C)CC3)CC2)ccc1Nc1ncc2c(n1)N(C1CCCC1)c1ccccc1C(=O)N2C [Compound 25, 11-cyclopentyl-2-((2-methoxy-4-(4-(4-methylpiperazin-1-yl)piperidine-1-carbonyl)phenyl)amino)-5-methyl-5H-benzo[e]pyrimido[5,4-b][1,4]diazepin-6(11H)-one] | 83 | 100 | 90
4 | CCOc1cc(C(=O)N2CCC(N3CCN(C)CC3)CC2)ccc1Nc1ncc2c(n1)N(C1CCCC1)c1ccccc1C(=O)N2C [Compound 26] | 100 | 82 | 99
